PubChem BioAssay (NCI)
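Step 1: Grow cells in 96-well plates. Step 2: Expose to compound for 48 hours at 5 concentrations. Step 3: Interpolate endpoints linearly; if unreached, use highest concentration. Definition used: TGI = concentration required for complete inhibition of growth.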

Tests used:
Test in all cases: NCI-60 cell line screen, 48 h
[1] = test system: 786-0 renal
[2] = test system: A498 renal
[3] = test system: A549 NSCLC
[4] = test system: ACHN renal
[5] = test system: BT-549 breast
[6] = test system: CAKI-1 renal
[7] = test system: COLO 205 colon
[8] = test system: DU-145 prostate
[9] = test system: EKVX NSCLC
[10] = test system: HCC-2998 colon
[11] = test system: HCT-116 colon
[12] = test system: HCT-15 colon
[13] = test system: HL-60(TB) leukemia
[14] = test system: HOP-92 NSCLC
[15] = test system: HS 578T breast
[16] = test system: HT29 colon
[17] = test system: IGROV1 ovarian
[18] = test system: K-562 leukemia
[19] = test system: KM12 colon
[20] = test system: LOX IMVI melanoma
[21] = test system: M14 melanoma
[22] = test system: MALME-3M melanoma
[23] = test system: MCF7 breast
[24] = test system: MDA-MB-231 breast
[25] = test system: MDA-MB-435
[26] = test system: MDA-N
[27] = test system: MOLT-4 leukemia
[28] = test system: NCI-H226 lung
[29] = test system: NCI-H23 lung
[30] = test system: NCI-H460 lung
[31] = test system: NCI-H522 lung
[32] = test system: NCI/ADR-RES ovarian
[33] = test system: OVCAR-3 ovarian
[34] = test system: OVCAR-4 ovarian
[35] = test system: OVCAR-5 ovarian
[36] = test system: OVCAR-8 ovarian
[37] = test system: PC-3 prostate
[38] = test system: RPMI-8226 leukemia
[39] = test system: SF-268 CNS
[40] = test system: SF-295 CNS
[41] = test system: SF-539 CNS
[42] = test system: SK-MEL-2 melanoma
[43] = test system: SK-MEL-28 melanoma
[44] = test system: SK-MEL-5 melanoma
[45] = test system: SK-OV-3 ovarian
[46] = test system: SN12C renal
[47] = test system: SNB-19 CNS
[48] = test system: SW-620 colon
[49] = test system: T-47D breast
[50] = test system: TK-10 renal
[51] = test system: U251 CNS
[52] = test system: UACC-257 melanoma
[53] = test system: UACC-62 melanoma
[54] = test system: UO-31 renal

Measured: TGI

CC(=O)OCCn1c(Cc2ccc(C)cc2)nn(C(C)=O)c1=O
> 100 µM: [1] | [2] | [3] | [4] | [5] | [6] | [7] | [8] | [9] | [10] | [11] | [12] | [13] | [14] | [15] | [16] | [17] | [18] | [19] | [20] | [21] | [22] | [23] | [24] | [25] | [26] | [27] | [28] | [29] | [30] | [31] | [32] | [33] | [34] | [35] | [36] | [37] | [38] | [39] | [40] | [41] | [42] | [43] | [44] | [45] | [46] | [47] | [48] | [49] | [50] | [51] | [52] | [53] | [54]
